# Data taken from US9353090B2, “Heterocyclic carboxylic acids as activators of soluble guanylate cyclase” (Boehringer Ingelheim International GmbH, priority 2014, dated 2016).
# Tests used:
# [1] = target: human soluble guanylate cyclase alpha 1 and beta 1 subunits (sGC) (Homo sapiens (Human), UniProt Q02153); test: sGC cellular activator assay (cGMP, HTRF), in the presence and absence of 50% human serum; format: cell-based; details: CHO cells stably expressing human sGC alpha 1/beta 1, preincubated with 40 microM ODQ; cGMP by HTRF; Table 2 does not state whether with or without 50% human serum
# Procedure, shortened: (§1)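 Heme-oxidized conditions: ODQ (40 microM, 1 h) pretreatment of CHO cells stably expressing human α1/β1 sGC, in buffer containing 0.1% BSA and IBMX.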
# [2] = Human liver microsome (HLM) metabolic stability assay; format: in vitro ADME; details: human liver microsomes
# Procedure, shortened: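 Compound at 1 uM incubated with human liver microsomes at 37° C. for 60 min after NADPH addition. Aliquots quenched in cold acetonitrile at 0, 5, 15, 30 and 60 min and analysed by LC/MS/MS. t1/2 from ln(% remaining) vs time slope; CLint, CLh and % Qh derived from it (n=1).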
# [3] = 24 h
# Method: Solubility is measured by the following method.
# 100 uL, 10 mM DMSO stock solution of each compound is prepared in a 96 well plate format. The experiment is done in single determination at 3 pH values (2.2, 4.5 and 6.8). For each pH and one reference, 40 uL of each compound is needed.
# McIlvaine pH 2.2: To 2.076 g citric acid monohydrate and 0.043 g Na2HPO4×2H2O add 100 ml deionized water
# McIlvaine pH 4.5: To 1.166 g citric acid monohydrate and 1.585 g Na2HPO4×2H2O add 100 ml deionized water
# McIlvaine pH 6.8: To 0.476 g citric acid monohydrate and 2.753 g Na2HPO4×2H2O add 100 ml deionized water
# With a suitable liquid handling device (Multipette® or a liquid handler) 390 uL of each buffer solution and 10 uL of compound is added to each well of a 96 deep well plate. The plates are covered firmly and shaken for 24 h on an over head shaker (at 54 RPM) at room temperature. The DMSO content in the final buffer is 2.5% v/v.
# After 24 h the plates are centrifuged to remove droplets on the lid before opening (for ˜5 min at 2500 RPM).
# The filtration is done under vacuum with Millipore 96 well filter plate. Filtrate is collected in a deep well plate and transferred to a suitable plate for UPLC analysis.
# The reference plate is prepared by adding 10 uL of compound to 390 uL of 50:50 acetonitrile/water in a 96 deep well plate and transferred to a suitable plate for UPLC analysis. Wells are checked visually for precipitation, any presence noted under comments in reported results.
# The samples are measured with UPLC-UV using the chromatographic method described below.
# Waters Empower®2 software is used for generating Sample Sets (according to the plate layout), Sample Set Methods and Instrument Methods.
# One Sample Set comprises the methods for three 96 well plates (one reference plate and two sample plates, and includes one Sample Set Method and one Instrument Method).
# Data Processing and Analysis
# The UV chromatograms collected at 254 nm are integrated and processed.
# It is assumed that the compound is completely dissolved in the reference solution (50:50 acetonitrile/water)
# [4] = target: human soluble guanylate cyclase alpha 1 and beta 1 subunits (sGC) (Homo sapiens (Human), UniProt Q02108+Q02153); test: sGC cellular activator assay (cGMP, HTRF), in the presence and absence of 50% human serum; format: cell-based; details: CHO cells stably expressing human sGC alpha 1/beta 1, preincubated with 40 microM ODQ; cGMP by HTRF; Table 2 does not state whether with or without 50% human serum
# Procedure, shortened: as §1
# Sequence of human soluble guanylate cyclase alpha 1 and beta 1 subunits (sGC) (Homo sapiens (Human), UniProt Q02108+Q02153) (Q02108 whole entry partner): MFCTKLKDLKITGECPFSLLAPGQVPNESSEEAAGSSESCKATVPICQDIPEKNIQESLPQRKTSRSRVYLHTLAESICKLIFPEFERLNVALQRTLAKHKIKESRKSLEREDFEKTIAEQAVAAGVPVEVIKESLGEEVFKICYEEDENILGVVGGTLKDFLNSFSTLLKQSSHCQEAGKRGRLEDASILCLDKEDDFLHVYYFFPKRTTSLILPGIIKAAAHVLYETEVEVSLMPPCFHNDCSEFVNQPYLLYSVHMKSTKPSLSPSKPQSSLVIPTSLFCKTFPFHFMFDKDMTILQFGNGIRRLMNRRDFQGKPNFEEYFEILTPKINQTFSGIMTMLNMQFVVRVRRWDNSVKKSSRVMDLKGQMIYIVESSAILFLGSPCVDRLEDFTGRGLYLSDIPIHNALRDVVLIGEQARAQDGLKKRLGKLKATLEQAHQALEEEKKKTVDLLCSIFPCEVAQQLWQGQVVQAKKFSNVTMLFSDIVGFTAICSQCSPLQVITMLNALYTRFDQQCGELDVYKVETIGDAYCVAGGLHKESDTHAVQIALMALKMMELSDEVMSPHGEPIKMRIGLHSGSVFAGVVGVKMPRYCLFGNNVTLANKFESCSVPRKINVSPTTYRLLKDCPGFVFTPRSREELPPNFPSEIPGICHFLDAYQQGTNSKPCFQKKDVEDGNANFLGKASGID
# Sequence of human soluble guanylate cyclase alpha 1 and beta 1 subunits (sGC) (Homo sapiens (Human), UniProt Q02108+Q02153) (Q02153 whole entry): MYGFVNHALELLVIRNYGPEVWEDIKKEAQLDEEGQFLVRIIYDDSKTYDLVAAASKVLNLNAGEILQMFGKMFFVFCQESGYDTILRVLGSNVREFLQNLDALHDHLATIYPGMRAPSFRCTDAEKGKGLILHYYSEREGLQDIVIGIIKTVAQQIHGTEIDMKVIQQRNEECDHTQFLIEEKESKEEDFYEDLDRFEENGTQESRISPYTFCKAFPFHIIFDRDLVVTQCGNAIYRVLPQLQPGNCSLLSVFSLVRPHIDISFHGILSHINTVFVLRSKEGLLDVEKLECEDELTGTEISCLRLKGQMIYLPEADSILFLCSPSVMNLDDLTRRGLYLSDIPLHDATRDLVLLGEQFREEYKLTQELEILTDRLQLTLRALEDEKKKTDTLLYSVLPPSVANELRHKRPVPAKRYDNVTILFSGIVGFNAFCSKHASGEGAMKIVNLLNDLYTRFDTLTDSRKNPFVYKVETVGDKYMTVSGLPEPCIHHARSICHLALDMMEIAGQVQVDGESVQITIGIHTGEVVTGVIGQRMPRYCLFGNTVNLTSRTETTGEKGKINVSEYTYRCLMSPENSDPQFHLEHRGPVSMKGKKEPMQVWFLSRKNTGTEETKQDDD
# Sequence of human soluble guanylate cyclase alpha 1 and beta 1 subunits (sGC) (Homo sapiens (Human), UniProt Q02153) (Q02108 whole entry partner): as the sequence (Q02108 whole entry partner) above
# Sequence of human soluble guanylate cyclase alpha 1 and beta 1 subunits (sGC) (Homo sapiens (Human), UniProt Q02153) (Q02153 whole entry): as the sequence (Q02153 whole entry) above
SMILES,EC50 [1] [nM],"Metabolic stability (Qh %), % hepatic blood flow [2] [%]",Solubility (pH 2.2) [3] [μg/mL],Solubility (pH 4.5) [3] [μg/mL],Solubility (pH 6.8) [3] [μg/mL],EC50 [4] [nM]
Cc1c(COc2ccccc2-c2cccc(N3CC[C@@]4(C(=O)O)C[C@H]4C3)n2)ccc2c1CCN(C1CCOCC1)C2 [Compound 3],3,<24,140,120,60,
Cc1cc(COc2c(C)cccc2-c2cccc(N3C[C@@H]4C[C@]4(C(=O)O)C3)n2)cc2c1CN(C1CCOC1)CC2 (stereo partly shown) [Compound 26],,<24,110,90,67,9
CO[C@@H]1CN(c2cccc(-c3cc(C)ccc3OCc3cc(C)c4c(c3)CCN(C3CCOC3)C4)n2)CC[C@@H]1C(=O)O (stereo partly shown) [Compound 78],,<24,110,91,63,26
Cc1cc(COc2c(C)cccc2-c2csc(N3CC[C@@]4(C(=O)O)C[C@H]4C3)n2)cc2c1CN(CC1COCCO1)CC2 (stereo partly shown) [Compound 93],,<24,140,70,51,2
CO[C@@H]1CN(c2nc(-c3cccc(C)c3OCc3cc(C)c4c(c3)CCN(CC3COCCO3)C4)cs2)CC[C@@H]1C(=O)O (stereo partly shown) [Compound 176],,<24,140,95,89,64
